According to patent US20140128385A1 (NOVARTIS AG, priority 2011, published 2014):
Counter-ions that a name gives are not always drawn.

Target: T1, BACE-2 (Homo sapiens, UniProt Q9Y5Z0)
T1 construct: Recombinant BACE-2 (extracellular domain, expressed in baculovirus and purified using standard methods); made in house
T1 sequence (Q9Y5Z0 63-473 limits assumed): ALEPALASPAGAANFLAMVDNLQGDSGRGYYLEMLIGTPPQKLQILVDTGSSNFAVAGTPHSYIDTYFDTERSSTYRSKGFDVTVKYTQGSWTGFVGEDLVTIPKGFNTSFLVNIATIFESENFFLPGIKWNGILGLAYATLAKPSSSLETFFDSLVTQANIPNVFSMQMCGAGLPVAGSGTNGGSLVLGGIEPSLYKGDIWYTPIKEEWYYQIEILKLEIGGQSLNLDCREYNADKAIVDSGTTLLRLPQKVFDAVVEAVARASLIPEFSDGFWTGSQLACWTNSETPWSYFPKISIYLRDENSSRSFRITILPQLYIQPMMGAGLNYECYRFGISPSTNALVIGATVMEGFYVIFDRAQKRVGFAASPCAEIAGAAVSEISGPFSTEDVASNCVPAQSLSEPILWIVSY
Experiment: assay for inhibition of BACE-2
Assay type: biochemical

| Compound | IC50 [nM] |
| --- | --- |
| COc1cnc(C(=O)Nc2ccc(F)c([C@]3(C(F)F)COCC(N)=N3)c2)c(Cl)c1 [Example 161, 3-Chloro-5-methoxy-pyridine-2-carboxylic acid [3-((R)-5-amino-3-difluoromethyl-3,6-dihydro-2H-[1,4]oxazin-3-yl)-4-fluoro-phenyl]-amide] | 82 |
| NC1=N[C@@](c2cc(NC(=O)c3ccc(=O)[nH]c3)ccc2F)(C(F)F)COC1 [Example 162, 6-Oxo-1,6-dihydro-pyridine-3-carboxylic acid [3-((R)-5-amino-3-difluoromethyl-3,6-dihydro-2H-[1,4]oxazin-3-yl)-4-fluoro-phenyl]-amide hydrochloride] | > 10000 |
| NC1=N[C@@](c2cc(NC(=O)c3cc4cccn4cn3)ccc2F)(C(F)F)COC1 [Example 163, Pyrrolo[1,2-c]pyrimidine-3-carboxylic acid [3-((R)-5-amino-3-difluoromethyl-3,6-dihydro-2H-[1,4]oxazin-3-yl)-4-fluoro-phenyl]-amide] | 405 |
| CC#CCOc1cnc(C(=O)Nc2ccc(F)c([C@]3(C(F)F)COCC(N)=N3)c2)cn1 [Example 164, 5-But-2-ynyloxy-pyrazine-2-carboxylic acid [3-((R)-5-amino-3-difluoromethyl-3,6-dihydro-2H-[1,4]oxazin-3-yl)-4-fluoro-phenyl]-amide hydrochloride] | 76 |
| NC1=N[C@@](c2cc(NC(=O)c3ncc(Br)cc3N)ccc2F)(C(F)F)COC1 [Example 165, 3-Amino-5-bromo-pyridine-2-carboxylic acid [3-((R)-5-amino-3-difluoromethyl-3,6-dihydro-2H-[1,4]oxazin-3-yl)-4-fluoro-phenyl]-amide hydrochloride] | 5 |
| CCn1ccnc1C(=O)Nc1ccc(F)c([C@]2(C(F)F)COCC(N)=N2)c1 [Example 166, 1-Ethyl-1H-imidazole-2-carboxylic acid [3-((R)-5-amino-3-difluoromethyl-3,6-dihydro-2H-[1,4]oxazin-3-yl)-4-fluoro-phenyl]-amide hydrochloride] | 378 |
| C#CCOc1cnc(C(=O)Nc2ccc(F)c([C@]3(C(F)F)COCC(N)=N3)c2)cn1 [Example 167, 5-Prop-2-ynyloxy-pyrazine-2-carboxylic acid [3-((R)-5-amino-3-difluoromethyl-3,6-dihydro-2H-[1,4]oxazin-3-yl)-4-fluoro-phenyl]-amide hydrochloride] | 172 |
| Cc1nc(C(=O)Nc2ccc(F)c([C@]3(C(F)F)COCC(N)=N3)c2)c(N)o1 [Example 168, 5-Amino-2-methyl-oxazole-4-carboxylic acid [3-((R)-5-amino-3-difluoromethyl-3,6-dihydro-2H-[1,4]oxazin-3-yl)-4-fluoro-phenyl]-amide hydrochloride] | 35 |
| NC1=N[C@@](c2cc(NC(=O)c3ncc(Cl)cc3O)ccc2F)(C(F)F)COC1 [Example 169, 5-Chloro-3-hydroxy-pyridine-2-carboxylic acid [3-((R)-5-amino-3-difluoromethyl-3,6-dihydro-2H-[1,4]oxazin-3-yl)-4-fluoro-phenyl]-amide] | 4 |
| CC(C)Oc1cnc(C(=O)Nc2ccc(F)c([C@]3(C(F)F)COCC(N)=N3)c2)cn1 [Example 170, 5-Isopropoxy-pyrazine-2-carboxylic acid [3-((R)-5-amino-3-difluoromethyl-3,6-dihydro-2H-[1,4]oxazin-3-yl)-4-fluoro-phenyl]-amide] | 2710 |
| CCOc1cnc(C(=O)Nc2ccc(F)c([C@]3(C(F)F)COCC(N)=N3)c2)cn1 [Example 171, 5-Ethoxy-pyrazine-2-carboxylic acid [3-((R)-5-amino-3-difluoromethyl-3,6-dihydro-2H-[1,4]oxazin-3-yl)-4-fluoro-phenyl]-amide] | 200 |
| Cc1c(C(=O)Nc2ccc(F)c([C@]3(C(F)F)COCC(N)=N3)c2)oc2ccc(CN(C)C)cc12 [Example 172, 5-Dimethylaminomethyl-3-methyl-benzofuran-2-carboxylic acid [3-((R)-5-amino-3-difluoromethyl-3,6-dihydro-2H-[1,4]oxazin-3-yl)-4-fluoro-phenyl]-amide hydrochloride] | 7 |
| Cc1c(C(=O)Nc2ccc(F)c([C@]3(C(F)F)COCC(N)=N3)c2)nnn1C [Example 173, 1,5-Dimethyl-1H-[1,2,3]triazole-4-carboxylic acid [3-((R)-5-amino-3-difluoromethyl-3,6-dihydro-2H-[1,4]oxazin-3-yl)-4-fluoro-phenyl]-amide hydrochloride] | > 10000 |
| COc1cnc(C(=O)Nc2ccc(F)c([C@]3(C(F)F)COCC(N)=N3)c2)c(C)n1 [Example 174, 5-Methoxy-3-methyl-pyrazine-2-carboxylic acid [3-((R)-5-amino-3-difluoromethyl-3,6-dihydro-2H-[1,4]oxazin-3-yl)-4-fluoro-phenyl]-amide hydrochloride] | 276 |
| COc1cnc(C(=O)Nc2ccc(F)c([C@]3(C(F)F)COCC(N)=N3)c2)c(N)n1 [Example 175, 3-Amino-5-methoxy-pyrazine-2-carboxylic acid [3-((R)-5-amino-3-difluoromethyl-3,6-dihydro-2H-[1,4]oxazin-3-yl)-4-fluoro-phenyl]-amide hydrochloride] | 111 |
| Cc1cc(OC(F)F)cnc1C(=O)Nc1ccc(F)c([C@]2(C(F)F)COCC(N)=N2)c1 [Example 176, 5-Difluoromethoxy-3-methyl-pyridine-2-carboxylic acid [3-((R)-5-amino-3-difluoromethyl-3,6-dihydro-2H-[1,4]oxazin-3-yl)-4-fluoro-phenyl]-amide hydrochloride] | 183 |
| Cc1cc(OCF)cnc1C(=O)Nc1ccc(F)c([C@]2(C(F)F)COCC(N)=N2)c1 [Example 177, 5-Fluoromethoxy-3-methyl-pyridine-2-carboxylic acid [3-((R)-5-amino-3-difluoromethyl-3,6-dihydro-2H-[1,4]oxazin-3-yl)-4-fluoro-phenyl]-amide hydrochloride] | 37 |
| COCCOc1cnc(C(=O)Nc2ccc(F)c([C@]3(C(F)F)COCC(N)=N3)c2)c(C)n1 [Example 178, 5-(2-Methoxy-ethoxy)-3-methyl-pyrazine-2-carboxylic acid [3-((R)-5-amino-3-difluoromethyl-3,6-dihydro-2H-[1,4]oxazin-3-yl)-4-fluoro-phenyl]-amide hydrochloride] | 2960 |
| COc1cnc(C(=O)Nc2ccc(F)c([C@]3(C(F)F)COCC(N)=N3)c2)c(OC)c1 [Example 179, 3,5-Dimethoxy-pyridine-2-carboxylic acid [3-((R)-5-amino-3-difluoromethyl-3,6-dihydro-2H-[1,4]oxazin-3-yl)-4-fluoro-phenyl]-amide hydrochloride] | 270 |
| COCCOc1ccc(C(=O)Nc2ccc(F)c([C@]3(C(F)F)COCC(N)=N3)c2)nc1 [Example 180, 5-(2-Methoxy-ethoxy)-pyridine-2-carboxylic acid [3-((R)-5-amino-3-difluoromethyl-3,6-dihydro-2H-[1,4]oxazin-3-yl)-4-fluoro-phenyl]-amide hydrochloride] | 1650 |
| COCCOc1cnc(C(=O)Nc2ccc(F)c([C@]3(C(F)F)COCC(N)=N3)c2)c(F)c1 [Example 181, 3-Fluoro-5-(2-methoxy-ethoxy)-pyridine-2-carboxylic acid [3-((R)-5-amino-3-difluoromethyl-3,6-dihydro-2H-[1,4]oxazin-3-yl)-4-fluoro-phenyl]-amide hydrochloride] | 6080 |
